In patent publication US20260138978A1, “POSITIVE ALLOSTERIC MODULATORS OF THE MUSCARINIC ACETYLCHOLINE RECEPTOR M1” (Vanderbilt University, priority 2022, published 2026):

What was measured:
human mAChRM1 [1] = target: T1, human mAChRM1 (Homo sapiens, UniProt P11229); assay: mAChR M1 cell-based functional assay (calcium mobilization), positive allosteric modulator activity: increase in the EC20 acetylcholine response; details: for Emax: PAM mode; for EC50 / PAM Activity Human M1 EC50: increase in the EC20 acetylcholine response; for EC50: read-out: PAM Activity Human M1 EC50
T1 construct: host or cells: CHO-K1
T1 sequence (P11229 1-460): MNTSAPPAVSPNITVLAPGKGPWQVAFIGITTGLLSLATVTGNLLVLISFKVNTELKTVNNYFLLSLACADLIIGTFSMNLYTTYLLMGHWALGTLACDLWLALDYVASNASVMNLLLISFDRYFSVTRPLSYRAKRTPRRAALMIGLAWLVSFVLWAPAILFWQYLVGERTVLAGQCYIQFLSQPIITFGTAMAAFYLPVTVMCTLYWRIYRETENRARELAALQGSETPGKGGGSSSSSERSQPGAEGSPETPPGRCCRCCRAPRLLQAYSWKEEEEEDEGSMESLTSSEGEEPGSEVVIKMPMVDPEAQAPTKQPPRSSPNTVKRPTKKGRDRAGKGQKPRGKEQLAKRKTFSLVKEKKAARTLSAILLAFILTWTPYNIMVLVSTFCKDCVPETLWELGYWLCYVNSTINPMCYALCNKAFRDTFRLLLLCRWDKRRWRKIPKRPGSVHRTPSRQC
In short: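 CHO-K1 cells stably expressing human M1, loaded with Fluo-4 AM; calcium flux recorded on FDSS at 1 Hz over 300 s following compound addition. PAM activity is the concentration-dependent increase of an EC20 acetylcholine response; EC50 and Emax from four-parameter logistic fits of 11-point, 1:3 concentration series.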

human mAChRM1 [2] = target: T1, human mAChRM1; assay: mAChR M1 cell-based functional assay (calcium mobilization), agonist activity upon compound addition, Emax relative to acetylcholine maximum; details: for Agonist Activity Human M1 EC50 / EC50: calcium mobilization upon compound addition; for Emax: relative to the maximum for acetylcholine
In short: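 CHO-K1 cells stably expressing human M1 were loaded with Fluo-4 AM for 50 min at 37 °C. Compound was added 4 s into a 300 s FDSS read at 1 Hz, over 11-point 1:3 dilution curves. Agonism was taken as a concentration-dependent rise in calcium fluorescence ratio, with Emax expressed relative to the acetylcholine maximum from four-parameter logistic fits.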

| Emax (human mAChRM1 [1]) | EC50 (human mAChRM1 [1]) | Agonist Activity Human M1 EC50 (human mAChRM1 [2]) | EC50 (human mAChRM1 [2]) | Emax (human mAChRM1 [2]) | PAM Activity Human M1 EC50 (human mAChRM1 [1]) | Compound |
| --- | --- | --- | --- | --- | --- | --- |
| 74% | 2590 nM | inactive |  |  |  | Cn1cc2c(-c3cc(F)c(CN4Cc5ncc(C6CC6)cc5C4=O)c(F)c3)ccc(C(C)(C)O)c2n1 [Compound 175, 3-cyclopropyl-6-(2,6-difluoro-4-(7-(2-hydroxypropan-2-yl)-2-methyl-2H-indazol-4-yl)benzyl)-6,7-dihydro-5H-pyrrolo[3,4-b]pyridin-5-one] |
| 34% | 1830 nM | inactive |  |  |  | CC(C)(O)c1c(F)cc(-c2cc(F)c(CN3Cc4ncccc4C3=O)c(F)c2)cc1F [Compound 47, 6-((3,3′,5,5′-tetrafluoro-4′-(2-hydroxypropan-2-yl)-[1,1′-biphenyl]-4-yl)methyl)-6,7-dihydro-5H-pyrrolo[3,4-b]pyridin-5-one] |
| 75% | 202 nM |  | ≥ 10000 nM | 19% |  | Cc1cc(-c2ccc(C(C)(C)O)c3nn(C)cc23)cc(F)c1CN1Cc2cccc(F)c2C1=O [Compound 162, 7-fluoro-2-(2-fluoro-4-(7-(2-hydroxypropan-2-yl)-2-methyl-2H-indazol-4-yl)-6-methylbenzyl)isoindolin-1-one] |
| 55% | ≥ 10000 nM | inactive |  |  |  | Cn1cc(-c2cc(F)c(CN3Cc4ncccc4C3=O)c(F)c2)c(C(C)(C)O)n1 [Compound 28, 6-(2,6-difluoro-4-(3-(2-hydroxypropan-2-yl)-1-methyl-1H-pyrazol-4-yl)benzyl)-6,7-dihydro-5H-pyrrolo[3,4-b]pyridin-5-one] |
| 71% | 1960 nM | inactive |  |  |  | Cn1cc2cc(-c3ccc(CN4Cc5cccc(F)c5C4=O)c(F)c3F)cc(C(C)(C)O)c2n1 [Compound 170, 2-(2,3-difluoro-4-(7-(2-hydroxypropan-2-yl)-2-methyl-2H-indazol-5-yl)benzyl)-7-fluoroisoindolin-1-one] |
| 87% | 872 nM | inactive |  |  |  | Cn1cc2c(-c3cc(F)c(CN4Cc5ncccc5C4=O)c(F)c3)ccc(C(C)(O)CS(C)(=O)=O)c2n1 (stereo not drawn) [Compound 97, 6-(2,6-difluoro-4-(7-(2-hydroxy-1-(methylsulfonyl)propan-2-yl)-2-methyl-2H-indazol-4-yl)benzyl)-6,7-dihydro-5H-pyrrolo[3,4-b]pyridin-5-one] |
| 60% | 5040 nM | inactive |  |  |  | CC(C)(O)c1ccc(-c2cc(F)c(CN3Cc4nccnc4C3=O)c(F)c2)cc1 [Compound 137, 6-((3,5-difluoro-4′-(2-hydroxypropan-2-yl)-[1,1′-biphenyl]-4-yl)methyl)-6,7-dihydro-5H-pyrrolo[3,4-b]pyrazin-5-one] |
|  |  | inactive |  |  | inactive | CC(C)(O)c1ccc(-c2cc(F)c(CN3Cc4ncccc4C3=O)c(F)c2)c2ncccc12 [Compound 37, 6-(2,6-difluoro-4-(5-(2-hydroxypropan-2-yl)quinolin-8-yl)benzyl)-6,7-dihydro-5H-pyrrolo[3,4-b]pyridin-5-one] |
| 43% | ≥ 10000 nM | inactive |  |  |  | Cn1cc2c(-c3cnc(CN4Cc5ncccc5C4=O)nc3)ccc(C(C)(C)O)c2n1 [Compound 110, 6-[[5-[7-(1-Hydroxy-1-methyl-ethyl)-2-methyl-indazol-4-yl]pyrimidin-2-yl]methyl]-7H-pyrrolo[3,4-b]pyridin-5-one] |
|  |  | inactive |  |  | inactive | Cn1cc2cc(C(C)(C)O)cc(-c3cc(F)c(CN4Cc5ncccc5C4=O)c(F)c3)c2n1 [Compound 86, 6-(2,6-difluoro-4-(5-(2-hydroxypropan-2-yl)-2-methyl-2H-indazol-7-yl)benzyl)-6,7-dihydro-5H-pyrrolo[3,4-b]pyridin-5-one] |
| 62% | 147 nM |  | 6100 nM | 32% |  | Cn1cc2c(-c3cc(Cl)c(CN4Cc5ncccc5C4=O)c(C4CC4)c3)ccc(C(C)(C)O)c2n1 [Compound 67, 6-(2-chloro-6-cyclopropyl-4-(7-(2-hydroxypropan-2-yl)-2-methyl-2H-indazol-4-yl)benzyl)-6,7-dihydro-5H-pyrrolo[3,4-b]pyridin-5-one] |
| 66% | 3700 nM | inactive |  |  |  | CC(C)(O)c1ccc(-c2cc(F)c(CN3Cc4cccnc4C3=O)c(Cl)c2)cc1 [Compound 120, 6-((3-chloro-5-fluoro-4′-(2-hydroxypropan-2-yl)-[1,1′-biphenyl]-4-yl)methyl)-5,6-dihydro-7H-pyrrolo[3,4-b]pyridin-7-one] |
| 89% | 101 nM |  | 5570 nM | 58% |  | [2H]C1([2H])c2ncccc2C(=O)N1Cc1c(C)cc(-c2ccc(C(C)(C)O)c3nn(C)cc23)cc1F (single isomer, unassigned) [Compound 144, 6-(2-fluoro-4-(7-(2-hydroxypropan-2-yl)-2-methyl-2H-indazol-4-yl)-6-methylbenzyl)-6,7-dihydro-5H-pyrrolo[3,4-b]pyridin-5-one-7,7-d2] |
| 73% | 3870 nM | inactive |  |  |  | CN(C)c1cc(-c2ccc(C(C)(C)O)c3nn(C)cc23)cc(F)c1CN1Cc2ncccc2C1=O [Compound 77, 6-(2-(dimethylamino)-6-fluoro-4-(7-(2-hydroxypropan-2-yl)-2-methyl-2H-indazol-4-yl)benzyl)-6,7-dihydro-5H-pyrrolo[3,4-b]pyridin-5-one] |
| 92% | 825 nM | inactive |  |  |  | Cn1cc2c(-c3ccc(CN4Cc5cccnc5C4=O)cc3)ccc(C(C)(C)O)c2n1 [Compound 131, 6-(4-(7-(2-hydroxypropan-2-yl)-2-methyl-2H-indazol-4-yl)benzyl)-5,6-dihydro-7H-pyrrolo[3,4-b]pyridin-7-one] |
| 83% | 1280 nM | inactive |  |  |  | Cn1cc2c(-c3ccc(CN4Cc5ncccc5C4=O)c(F)c3)cc(C(C)(C)O)cc2n1 [Compound 26, 6-(2-fluoro-4-(6-(2-hydroxypropan-2-yl)-2-methyl-2H-indazol-4-yl)benzyl)-6,7-dihydro-5H-pyrrolo[3,4-b]pyridin-5-one] |
| 67% | 422 nM |  | ≥ 10000 nM | 12% |  | Cn1cc2cc(-c3cc(F)c(CN4Cc5ncccc5C4=O)c(Cl)c3)cc(C(C)(C)O)c2n1 [Compound 41, 6-(2-chloro-6-fluoro-4-(7-(2-hydroxypropan-2-yl)-2-methyl-2H-indazol-5-yl)benzyl)-6,7-dihydro-5H-pyrrolo[3,4-b]pyridin-5-one] |
| 64% | 3210 nM | inactive |  |  |  | CC(C)(O)c1cccc(-c2cc(F)c(CN3Cc4ncccc4C3=O)c(F)c2)c1 [Compound 43, 6-((3,5-difluoro-3′-(2-hydroxypropan-2-yl)-[1,1′-biphenyl]-4-yl)methyl)-6,7-dihydro-5H-pyrrolo[3,4-b]pyridin-5-one] |
| 73% | 180 nM |  | ≥ 10000 nM | 30% |  | Cn1cc2c(-c3cc(F)c(CN4Cc5ncccc5C4=O)cc3F)ccc(C(C)(C)O)c2n1 [Compound 62, 6-(2,5-difluoro-4-(7-(2-hydroxypropan-2-yl)-2-methyl-2H-indazol-4-yl)benzyl)-6,7-dihydro-5H-pyrrolo[3,4-b]pyridin-5-one] |
